In patent US20240294522A1 (Lead Discovery Center GmbH, priority 2021, published 2024):

Experiments:
[1] = biological target: T1, GRK5 (Homo sapiens, UniProt P34947); experiment: Lance Kinase Activity Assay, GRK5; conditions: biochemical Lance kinase activity assay; class symbols A-F; read-out: GRK5 LANCE Assay (IC-50)
T1 construct: purchased Thermo Scientific
In short: (§1)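 IC50s from sigmoidal dose-response over 0.0025-10 μM compound, with phosphorylated ULight substrate detected by Eu anti-phospho antibody FRET after EDTA quench.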

[2] = biological target: T2, GRK2 (Homo sapiens, UniProt P25098); experiment: Lance Kinase Activity Assay, GRK2; conditions: biochemical Lance kinase activity assay; class symbols A-F; read-out: GRK2 LANCE Assay (IC-50)
T2 construct: purchased Thermo Scientific
T2 sequence (P25098 1-689): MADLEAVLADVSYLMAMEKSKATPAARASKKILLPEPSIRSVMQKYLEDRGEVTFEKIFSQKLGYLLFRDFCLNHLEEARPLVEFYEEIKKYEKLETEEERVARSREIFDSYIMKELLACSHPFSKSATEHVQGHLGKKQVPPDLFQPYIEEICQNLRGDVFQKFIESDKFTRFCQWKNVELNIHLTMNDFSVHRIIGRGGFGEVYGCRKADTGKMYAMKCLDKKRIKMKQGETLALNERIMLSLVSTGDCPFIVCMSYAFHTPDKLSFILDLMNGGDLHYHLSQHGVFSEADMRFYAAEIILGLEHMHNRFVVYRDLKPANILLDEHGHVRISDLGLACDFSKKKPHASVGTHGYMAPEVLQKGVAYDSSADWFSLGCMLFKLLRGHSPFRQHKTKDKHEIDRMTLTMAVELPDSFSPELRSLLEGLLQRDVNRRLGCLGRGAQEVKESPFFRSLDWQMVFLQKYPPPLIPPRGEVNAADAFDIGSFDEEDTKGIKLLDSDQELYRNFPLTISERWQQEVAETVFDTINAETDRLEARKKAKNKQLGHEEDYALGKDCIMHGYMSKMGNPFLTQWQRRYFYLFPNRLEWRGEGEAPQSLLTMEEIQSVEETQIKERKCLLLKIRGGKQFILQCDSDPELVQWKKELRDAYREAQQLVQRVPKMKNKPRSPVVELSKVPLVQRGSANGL
In short: as §1

[3] = test system: neonatal rat ventricular cardiac myocytes (NRVCMs); experiment: In vitro cardiomyocyte hypertrophy assay; assay type: cell-based, Wistar rats; conditions: inhibition of cellular hypertrophy, NRVCMs stimulated with phenylephrine 20 μM and leukemia inhibitory factor 50 ng/ml, 96 h, read-out: Hypertrophy Assay (IC-50)
Protocol: 5-6 days old Wistar rats were sacrificed by decapitation and neonatal rat ventricular cardiac myocytes (NRVCMs) were prepared using the Neonatal heart dissociation kit (Miltenyi Biotec) according to the manufacturer's instructions. The cardiac single cell suspension was resuspended in DMEM low glucose medium supplemented with 2% fetal bovine serum (FBS) and 50 μg/ml penicillin/streptomycin. 1500 cells/well were seeded on 0.1% gelatin-coated 384-well plates and incubated in medium at 37° C. and 5% CO2 for 24 h prior to the addition of test compounds to the cells at titrated concentrations. Cellular hypertrophy was then stimulated by adding phenylephrine and leukemia inhibitory factor at final concentrations of 20 μM and 50 ng/ml, respectively, and the cells were incubated for another 96 h. For immunocytochemistry, cells were fixed with 4% formaldehyde on day 5 of compound treatment and cardiomyocytes were stained with antibodies against a-actinin while cell nuclei were stained with DAPI. Image acquisition and phenotypic analysis was performed using an Image-Xpress Micro XL automated microscope (Molecular Devices).
Inhibition of cellular hypertrophy is indicated as IC50 [nM]. Compounds having an activity designated as “A” provided an IC50≤500 nM; compounds having an activity designated as “B” provided an 500 nM<IC50≤1000 nM; compounds having an activity designated as “C” provided an IC50>1000 nM.

T1 sequence (P34947 whole entry): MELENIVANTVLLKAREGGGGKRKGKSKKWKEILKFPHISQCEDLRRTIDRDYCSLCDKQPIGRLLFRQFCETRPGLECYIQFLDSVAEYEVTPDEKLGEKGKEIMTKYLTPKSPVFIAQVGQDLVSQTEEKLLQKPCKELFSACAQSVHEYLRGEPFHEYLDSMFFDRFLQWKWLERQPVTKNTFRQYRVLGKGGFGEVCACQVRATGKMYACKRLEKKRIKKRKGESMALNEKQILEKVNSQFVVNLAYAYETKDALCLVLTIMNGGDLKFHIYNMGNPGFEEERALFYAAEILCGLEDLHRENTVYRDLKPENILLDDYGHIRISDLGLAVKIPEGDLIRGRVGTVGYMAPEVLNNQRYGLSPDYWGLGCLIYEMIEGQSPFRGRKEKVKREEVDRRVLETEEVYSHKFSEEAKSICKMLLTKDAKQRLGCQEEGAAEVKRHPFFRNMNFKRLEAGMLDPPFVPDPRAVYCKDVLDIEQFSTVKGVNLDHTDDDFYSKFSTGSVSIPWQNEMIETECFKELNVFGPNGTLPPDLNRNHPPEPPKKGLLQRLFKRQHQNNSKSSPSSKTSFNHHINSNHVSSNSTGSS

SMILES	IC50 [1]	IC50 [2]	IC50 [3]
COc1ccc([C@@H](C)NC(=O)/C(C#N)=C/c2c[nH]c3ncc(OCCN(C)C)cc23)cc1OC [Example 104, (R,E)-2-cyano-N-(1-(3,4-dimethoxyphenyl)ethyl)-3-(5-(2-(dimethylamino)ethoxy)-1H-pyrrolo[2,3-b]pyridin-3-yl)acrylamide]	≤ 0.05 µM	1 to 10 µM	> 1 µM
COc1ccc([C@@H](C)NC(=O)/C=C/c2c[nH]c3ncc(-c4ccc(N5CCN(C)CC5)cc4)cc23)cc1OC [Example 113, (R,E)-N-(1-(3,4-dimethoxyphenyl)ethyl)-3-(5-(4-(4-methylpiperazin-1-yl)phenyl)-1H-pyrrolo[2,3-b]pyridin-3-yl)acrylamide]	≤ 0.05 µM	0.5 to 1 µM	≤ 0.5 µM
COc1ccc([C@@H](C)NC(=O)/C(C#N)=C/c2c[nH]c3ncc(-c4ccc(CN(C)C)cc4)cc23)cc1OC [Example 117, (R,E)-2-cyano-N-(1-(3,4-dimethoxyphenyl)ethyl)-3-(5-(4-((dimethylamino)methyl)phenyl)-1H-pyrrolo[2,3-b]pyridin-3-yl)acrylamide]	≤ 0.05 µM	1 to 10 µM	0.5 to 1 µM
COc1ccc([C@@H](C)NC(=O)/C(C#N)=C/c2c[nH]c3ncc(-c4ccc(F)c(S(C)(=O)=O)c4)cc23)cc1OC [Example 169]	≤ 0.05 µM	1 to 10 µM	0.5 to 1 µM
C[C@@H](NC(=O)/C(C#N)=C/c1c[nH]c2ncc(-c3cnn(C)c3)cc12)c1ccc2c(c1)OCO2 [Example 252, (R,E)-N-(1-(benzo[d][1,3]dioxol-5-yl)ethyl)-2-cyano-3-(5-(1-methyl-1H-pyrazol-4-yl)-1H-pyrrolo[2,3-b]pyridin-3-yl)acrylamide]	≤ 0.05 µM	0.5 to 1 µM	≤ 0.5 µM

Continued, in another order:

IC50 [1]	IC50 [2]	SMILES	IC50 [3]
≤ 0.05 µM	1 to 10 µM	COc1ccc([C@@H](C)NC(=O)/C=C/c2c[nH]c3ncc(-c4cnn5ccccc45)cc23)cc1OC [Example 205, (R,E)-N-(1-(3,4-dimethoxyphenyl)ethyl)-3-(5-(pyrazolo[1,5-a]pyridin-3-yl)-1H-pyrrolo[2,3-b]pyridin-3-yl)acrylamide]	0.5 to 1 µM
≤ 0.05 µM	1 to 10 µM	COc1ccc([C@@H](C)NC(=O)/C=C/c2c[nH]c3ncc(-c4cnn(CCN(C)C)c4)cc23)cc1OC [Example 213, (R,E)-N-(1-(3,4-dimethoxyphenyl)ethyl)-3-(5-(1-(2-(dimethylamino)ethyl)-1H-pyrazol-4-yl)-1H-pyrrolo[2,3-b]pyridin-3-yl)acrylamide]	> 1 µM
≤ 0.05 µM	1 to 10 µM	COc1ccc([C@@H](C)NC(=O)/C=C/c2c[nH]c3ncc(-c4ccc(S(C)(=O)=O)cc4)cc23)cc1OC [Example 219, (R,E)-N-(1-(3,4-dimethoxyphenyl)ethyl)-3-(5-(4-(methylsulfonyl)phenyl)-1H-pyrrolo[2,3-b]pyridin-3-yl)acrylamide]	> 1 µM
≤ 0.05 µM	> 10 µM	COc1ccc([C@@H](C)NC(=O)/C=C/c2c[nH]c3ncc(-c4cccc(SC)c4)cc23)cc1OC [Example 254, (R,E)-N-(1-(3,4-dimethoxyphenyl)ethyl)-3-(5-(3-(methylthio)phenyl)-1H-pyrrolo[2,3-b]pyridin-3-yl)acrylamide]	> 1 µM
